Experimental data published in US20210170033A1, “NOVEL CONJUGATES OF A PHARMACEUTICAL AGENT AND A MOIETY CAPABLE OF BINDING TO A GLUCOSE SENSING PROTEIN” (SANOFI, priority 2017, published 2021).
pIC50: −log10 of the molar value. Where two headings read alike, the source gives them in different places.

What was measured:
A2780 cells = assay: Deoxy-glucose uptake assay in A2780 cells (14C 2-deoxy-D-glucose transport); type: cell-based; conditions: Homo sapiens, 20 min; inhibition of 14C 2-deoxy-D-glucose transport into A2780 cells; 20 min compound incubation; read-out: IC50
Summary of the method: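 Radiolabelled 2-deoxy-D-glucose transport over 20 min was scintillation-counted in A2780 cells, grown 48 h, after 20 min compound exposure in KRB. Untreated cells gave the 100% reference, with Cytochalasin B defining background. IC50 values were regressed from triplicate means across 7 or 14 concentrations.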

[1] = system: A2780 Human Carcinoma Cells; assay: Glucose displacement assay (ATP measurement, CellTiter-Glo); type: cell-based; conditions: ATP measurement in A2780 cells, 0.5 μM rotenone
Experimental: 2. Glucose Displacement Assay (ATP Measurement)
30,000 A2780 Human Carcinoma Cells are seeded per well in a Greiner 96-well plate. Cells are expanded and cultured in RPMI 1640 medium+GlutaMAX® with 10% FCS and 11 mM glucose, at 37° C. with 5% CO2. After 44 h, culture media is changed and washed once with PBS to starvation media consisting of RPMI 1640 medium with 1% FCS without glucose for 2 hours. Cells are then washed with KRB buffer, followed by incubation for 20 min at 37° C. of the treatment mix consisting of 60 μL KRB buffer/well and 10 μL of compound or DMSO 10×. 10 μl of rotenone is added to the mix to a final concentration of 0.5 μM. Cell plates are left for 2 min at room temperature. 20 μL of different glucose concentrations are added to the mix—typically 0.1 to 10 mM range—.
Cells are incubated for another 15 min at 37° C., before measuring ATP with the CellTiter-Glo® Assay, under manufacturer's guidance, but without the equilibration step at room temperature for 30 min. In brief, 100 μl of Cell-Titer-Glo® Reagent is added to the wells containing already 100 μl of the previous reaction mix. Plates are mixed for 2 min at 800 rpm, followed by incubation at room temperature for 10 min to stabilize the luminescent signal. Luminescence is then recorded with the Tekan Ultra Evolution reader.

[2] = 1 mM glucose, read-out: IC50 [μM] at 1 mM glucose
[3] = 10 mM glucose, read-out: IC50 [μM] at 10 mM glucose

SMILES | pIC50 (A2780 cells) | IC50 [1, 2] [µM] | IC50 [1, 3] [µM]
COc1cc(OCc2cccc(NC(=O)CCCC(=O)O)c2)c(Cl)cc1C(=O)O[C@H]1[C@@H](OC)O[C@H](CO)[C@@H](O)[C@@H]1O [Example 407] | 5.07 | 16.3 | > 33
C#CCCCn1c(COc2c(Cl)cc(C(=O)O[C@H]3[C@@H](OC)O[C@H](CO)[C@@H](O)[C@@H]3O)c(C)c2Cl)nc2ccc(OC)cc21 [Example 291] | 7.00 | 0.12 | 0.29
C#CCCCn1c(COc2c(Cl)cc(C(=O)O[C@H]3[C@@H](OC)O[C@H](CO)[C@@H](O)[C@@H]3O)c(C)c2Cl)nc2cc(OC)ccc21 [Example 292] | 7.00 | 0.13 | 1.12
COC(=O)[C@@H](CCCCNC(=O)CCCCCNC(=O)CCCCCCCCC(=O)Nc1cccc(COc2cc(OC)c(C(=O)N[C@H]3[C@@H](OC)O[C@H](CO)[C@@H](O)[C@@H]3O)cc2Cl)c1)NC(=O)OC(C)(C)C [Example 472] | 5.80 | 5.9 | 15.6
C#CCCCCCCn1c(COc2c(Cl)cc(C(=O)O[C@H]3[C@@H](OC)O[C@H](CO)[C@@H](O)[C@@H]3O)c(C)c2Cl)nc2ccccc21 [Example 321] | 6.70 | 0.56 | 1.2
CO[C@H]1O[C@H](CO)[C@@H](O)[C@H](O)[C@H]1OC(=O)c1cc(Cl)c(OCc2nc3ccccc3n2CCCc2cn(CCOCCOCC(=O)OC(C)(C)C)nn2)c(Cl)c1C [Example 311] | 6.40 | 0.12 | 0.7
CO[C@H]1O[C@H](CO)[C@@H](O)[C@H](O)[C@H]1OC(=O)c1cc(Cl)c(OCc2cccc(CNC(=O)CCCC(=O)OC(C)(C)C)c2)c(Cl)c1C [Example 349] | 5.60 | 1.46 | 7.76
COc1cc(OCc2cccc(NC(=O)CCCCCCC(=O)OC(C)(C)C)c2)c(Cl)cc1C(=O)O[C@H]1[C@@H](OC)O[C@H](CO)[C@@H](O)[C@@H]1O [Example 402] | 6.52 | 3.24 | 7.35
C#CCCCn1c(COc2c(Cl)cc(C(=O)N[C@H]3[C@@H](OC)O[C@H](CO)[C@@H](O)[C@@H]3O)c(C)c2Cl)nc2ccccc21 [Example 201] | 5.35 | 0.393 | 2.4
C#CCCCn1c(COc2cc(Cl)cc(C(=O)O[C@H]3[C@@H](OC)O[C@H](CO)[C@@H](O)[C@@H]3O)c2)nc2ccccc21 [Example 314] | 5.01 | 2.81 | 28.5
COC(=O)/C=C/c1ccc(COc2c(Cl)cc(C(=O)N[C@H]3[C@@H](OC)O[C@H](CO)[C@@H](O)[C@@H]3O)c(C)c2Cl)cc1 [Example 315] | 4.89 | 2.3 | > 33
COc1c(C(=O)N[C@H]2[C@@H](OC)O[C@H](CO)[C@@H](O)[C@@H]2O)cc(Cl)c(OCc2cccc(CNC(=O)OC(C)(C)C)c2)c1Cl [Example 444] | 5.80 | 4 | 8.4
CO[C@H]1O[C@H](CO)[C@@H](O)[C@H](O)[C@H]1OC(=O)c1cc(Cl)c(OCc2cccc(NCCCC(=O)OC(C)(C)C)c2)c(Cl)c1C [Example 345] | 4.91 | 2.41 | 6.59
COc1cc(OCc2cccc(CNC(=O)CCCC(=O)OC(C)(C)C)c2)c(Cl)cc1C(=O)N[C@H]1[C@@H](OC)O[C@H](CO)[C@@H](O)[C@@H]1O [Example 425] | 5.60 | 7.97 | 14.5
CO[C@H]1O[C@H](CO)[C@@H](O)[C@H](O)[C@H]1OC(=O)c1cc(Cl)c(OCc2cccc(CNC(=O)CCC(=O)OC(C)(C)C)c2)c(Cl)c1C [Example 344] | 6.00 | 1.11 | 8.59
COc1cc(OCc2cccc(OCCCCCC(=O)O)c2)c(Cl)cc1C(=O)O[C@H]1[C@@H](OC)O[C@H](CO)[C@@H](O)[C@@H]1O [Example 379] | 5.08 | 5.39 | 24.1
C#CCCCn1c(COc2cc(C(=O)O[C@H]3[C@@H](OC)O[C@H](CO)[C@@H](O)[C@@H]3O)cc3c2cnn3C)nc2ccccc21 [Example 327] | 5.03 | 4.99 | > 33
COc1cc(OCc2cccc(NC(=O)CCCC(=O)OC(C)(C)C)c2)c(Cl)cc1C(=O)O[C@@H]1[C@@H](O)[C@@H](OC)O[C@H](CO)[C@H]1O [Example 364] | 5.36 | 3.88 | 12.3
CO[C@H]1O[C@H](CO)[C@@H](O)[C@H](O)[C@H]1OC(=O)c1cc(Cl)c(OCc2nc3ccccc3n2Cc2ccccc2Cl)c(Cl)c1 [Example 116] | 5.66 | 16.7 | 104

SMILES | pIC50 (A2780 cells) | IC50 [1, 2] [µM] | IC50 [1, 3] [µM]
COc1cc(OCc2cccc(CNC(=O)CCC(=O)OC(C)(C)C)c2)c(Cl)cc1C(=O)N[C@H]1[C@@H](OC)O[C@H](CO)[C@@H](O)[C@@H]1O [Example 424] | 5.48 | 9.79 | 25.4
C#CCCCn1c(COc2c(Cl)cc(C(=O)O[C@H]3[C@@H](OC)O[C@H](CO)[C@@H](O)[C@@H]3O)c(C)c2Cl)nc2ccc(C)cc21 [Example 329] | 8.00 | 0.2 | 0.94
COc1cc(OCc2cccc(CNC(=O)OC(C)(C)C)c2)c(Cl)cc1C(=O)O[C@H]1[C@@H](OC)O[C@H](CO)[C@@H](O)[C@@H]1O [Example 361] | 6.10 | 1.93 | 8.11
C#CCCCCCCCn1c(COc2c(Cl)cc(C(=O)O[C@H]3[C@@H](OC)O[C@H](CO)[C@@H](O)[C@@H]3O)c(C)c2Cl)nc2ccccc21 [Example 371] | 6.40 | 0.86 | 1.44
C#CCCCn1c(COc2cc(OC)c(C(=O)O[C@H]3[C@@H](OC)O[C@H](CO)[C@@H](O)[C@@H]3O)cc2Cl)nc2ccccc21 [Example 294] | 7.00 | 0.16 | 1.28
COc1cc(OCc2cccc(NC(=O)CCCCCCC(=O)O)c2)c(Cl)cc1C(=O)O[C@H]1[C@@H](OC)O[C@H](CO)[C@@H](O)[C@@H]1O [Example 409] | 5.39 | 7.63 | 14.5
COc1cc(C(=O)O[C@H]2[C@@H](OC)O[C@H](CO)[C@@H](O)[C@@H]2O)cc(Cl)c1OCc1cccc(NC(=O)CCc2cc(C)nn2C)c1 [Example 313] |  | 3.2 | 18.8
CO[C@H]1O[C@H](CO)[C@@H](O)[C@H](O)[C@H]1OC(=O)c1cc(Cl)c(OCc2noc3ccc(C)cc23)c(Cl)c1C [Example 325] | 6.52 | 1.2 | 7.19
CO[C@H]1O[C@H](CO)[C@@H](O)[C@H](O)[C@H]1NC(=O)c1cc(Cl)c(OCc2cccc(CNC(=O)OC(C)(C)C)c2)c(Cl)c1C [Example 439] | 5.48 | 2.5 | 11.5
COC(=O)[C@H](CCCCNC(=O)CCCCCCC(=O)NCc1cccc(COc2cc(OC)c(C(=O)O[C@H]3[C@@H](OC)O[C@H](CO)[C@@H](O)[C@@H]3O)cc2Cl)c1)NC(=O)OC(C)(C)C [Example 413] | 5.29 | 10.3 | 30.9
CCOC(=O)CCCn1cc(CCCn2c(COc3c(Cl)cc(C(=O)O[C@H]4[C@@H](OC)O[C@H](CO)[C@@H](O)[C@@H]4O)c(C)c3Cl)nc3ccccc32)nn1 [Example 310] | 6.40 | 0.17 | 0.89
COc1cc(OCc2cn3c(C)cccc3n2)c(Cl)cc1C(=O)O[C@H]1[C@@H](OC)O[C@H](CO)[C@@H](O)[C@@H]1O [Example 353] | 7.00 | 1.5 | 6.07
C#CCCCn1c(COc2c(Cl)cc(C(=O)O[C@H]3[C@@H](OC)O[C@H](CO)[C@@H](O)[C@@H]3O)cc2OC)nc2ccccc21 [Example 186] | 5.22 |  | 
COC(=O)[C@H](CCCCNC(=O)CCC(=O)NCc1cccc(COc2cc(OC)c(C(=O)O[C@H]3[C@@H](OC)O[C@H](CO)[C@@H](O)[C@@H]3O)cc2Cl)c1)NC(=O)OC(C)(C)C [Example 385] | 4.65 |  | 
COC(=O)c1cc(COc2c(Cl)cc(C(=O)N[C@H]3[C@@H](OC)O[C@H](CO)[C@@H](O)[C@@H]3O)c(C)c2Cl)ccc1Cl [Example 257] | 5.14 |  | 
CO[C@@H]1O[C@H](COC(=O)c2cc(C)c(OCc3ccccc3)c(C)c2)[C@@H](O)[C@H](O)[C@H]1O [Example 19] | 4.20 |  | 
CO[C@H]1O[C@H](CO)[C@@H](O)[C@H](O)[C@H]1OC(=O)c1cc(Cl)c(OCc2cccc(CNC(=O)[C@H](CC(C)C)N(C)C(=O)OC(C)(C)C)c2)c(Cl)c1C [Example 279] | 5.47 |  | 
COc1cc(OCc2cccc(OCCCCCC(=O)O)c2)c(Cl)cc1C(=O)N[C@H]1[C@@H](OC)O[C@H](CO)[C@@H](O)[C@@H]1O [Example 398] | 4.07 |  | 
